The source of these data is ChEMBL document CHEMBL1129317, “Novel selective and partial agonists of 5-HT3 receptors. Part 1. Synthesis and biological evaluation of piperazinopyrrolothienopyrazines” (J Med Chem, 1996).

pEC50, pIC50: −log10 of the molar value.

Experiment [1] addresses T1, Serotonin 3 (5-HT3) receptor (Rattus norvegicus) (UniProt P35563+Q9JJ16). As to the kind of experiment: Antagonistic activity of compound towards 5-hydroxytryptamine 3 receptor in Von Bezold-Jarisch reflex in rats at 60(ug/kg), evaluated as percent inhibition of bradycardia. Type of experiment: functional.
Experiment [2] concerns NG108-15. Description: In vitro effective concentration against [14C]guanidinium uptake into NG 108-15 cells. Type of experiment: functional. The settings on record: Murinae, read-out: ED50 (the source's name).
Experiment [3] has as its target T1, Serotonin 3 (5-HT3) receptor (Rattus norvegicus). Description: Agonistic activity of compound towards 5-hydroxytryptamine 3 receptorr in Von Bezold-Jarisch Reflex in rats at 100 (ug/kg), evaluated as change in heart rate. The format is functional.
For experiment [4], the target named is T2, 5-hydroxytryptamine receptor 2C (Homo sapiens, UniProt P28335).
T2 sequence (P28335 whole entry): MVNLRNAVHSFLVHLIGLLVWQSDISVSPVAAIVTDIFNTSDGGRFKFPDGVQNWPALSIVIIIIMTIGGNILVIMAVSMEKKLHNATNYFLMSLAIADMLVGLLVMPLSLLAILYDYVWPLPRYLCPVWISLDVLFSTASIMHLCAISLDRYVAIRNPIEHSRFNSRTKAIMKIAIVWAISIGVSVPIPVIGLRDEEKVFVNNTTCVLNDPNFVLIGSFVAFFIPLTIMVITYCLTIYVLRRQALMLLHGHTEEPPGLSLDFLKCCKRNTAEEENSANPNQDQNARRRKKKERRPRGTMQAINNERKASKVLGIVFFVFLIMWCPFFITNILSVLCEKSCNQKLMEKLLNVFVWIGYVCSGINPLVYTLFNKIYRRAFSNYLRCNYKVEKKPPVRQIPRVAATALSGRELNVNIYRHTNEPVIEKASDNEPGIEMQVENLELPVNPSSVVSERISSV
Description: Binding affinity towards 5-hydroxytryptamine 2C receptor.

Experiment [5] addresses T3, Serotonin 3 (5-HT3) receptor (Rattus norvegicus, UniProt P35563+Q9JJ16).
T3 sequence (P35563 whole entry): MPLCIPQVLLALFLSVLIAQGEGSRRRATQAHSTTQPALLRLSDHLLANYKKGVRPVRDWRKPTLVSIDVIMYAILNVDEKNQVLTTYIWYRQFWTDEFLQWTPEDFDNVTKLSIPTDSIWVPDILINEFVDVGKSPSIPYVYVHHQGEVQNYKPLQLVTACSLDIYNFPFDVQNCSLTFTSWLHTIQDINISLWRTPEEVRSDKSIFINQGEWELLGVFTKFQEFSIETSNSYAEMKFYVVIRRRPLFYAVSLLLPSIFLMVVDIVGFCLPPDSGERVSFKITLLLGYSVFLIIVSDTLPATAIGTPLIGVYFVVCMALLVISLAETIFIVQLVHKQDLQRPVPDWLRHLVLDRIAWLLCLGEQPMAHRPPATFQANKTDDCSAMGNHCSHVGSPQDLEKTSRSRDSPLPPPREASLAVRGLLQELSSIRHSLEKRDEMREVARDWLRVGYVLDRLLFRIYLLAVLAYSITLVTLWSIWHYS
T3 sequence (Q9JJ16 whole entry): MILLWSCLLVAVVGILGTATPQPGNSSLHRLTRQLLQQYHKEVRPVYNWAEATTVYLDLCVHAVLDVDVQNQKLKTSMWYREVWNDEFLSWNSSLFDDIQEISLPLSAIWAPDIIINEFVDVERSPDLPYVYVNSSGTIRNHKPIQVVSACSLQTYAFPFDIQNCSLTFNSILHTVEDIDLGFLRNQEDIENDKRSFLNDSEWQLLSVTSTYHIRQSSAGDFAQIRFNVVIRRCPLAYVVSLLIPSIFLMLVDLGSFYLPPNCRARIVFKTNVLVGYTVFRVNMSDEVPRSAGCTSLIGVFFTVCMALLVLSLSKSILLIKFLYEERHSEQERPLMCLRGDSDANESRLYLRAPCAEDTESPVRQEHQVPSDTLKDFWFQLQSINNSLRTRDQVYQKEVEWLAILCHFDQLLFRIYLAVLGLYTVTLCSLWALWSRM
As to the kind of experiment: Binding affinity towards 5-hydroxytryptamine 3 receptor. Type of experiment: protein-complex assay.

For experiment [6], the target named is T4, 5-hydroxytryptamine receptor 1A (Homo sapiens, UniProt P08908).
T4 sequence (P08908 whole entry): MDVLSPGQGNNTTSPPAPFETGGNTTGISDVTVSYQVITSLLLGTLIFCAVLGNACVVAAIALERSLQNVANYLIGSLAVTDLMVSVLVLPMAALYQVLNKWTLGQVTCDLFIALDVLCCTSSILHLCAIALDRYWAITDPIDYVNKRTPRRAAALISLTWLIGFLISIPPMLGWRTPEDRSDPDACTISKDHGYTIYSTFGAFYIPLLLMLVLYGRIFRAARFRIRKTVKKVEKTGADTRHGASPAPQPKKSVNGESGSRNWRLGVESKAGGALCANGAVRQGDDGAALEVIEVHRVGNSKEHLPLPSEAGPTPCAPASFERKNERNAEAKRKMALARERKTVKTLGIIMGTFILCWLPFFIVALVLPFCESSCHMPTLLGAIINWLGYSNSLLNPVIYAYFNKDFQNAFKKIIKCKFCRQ
Description: Binding affinity for 5-hydroxytryptamine 1A receptor.

For experiment [7], the target named is 5-hydroxytryptamine receptor 1D (Sus scrofa, UniProt P79400). As to the kind of experiment: Binding affinity for 5-hydroxytryptamine 1D receptor.
Sequence of 5-hydroxytryptamine receptor 1D (P79400 whole entry): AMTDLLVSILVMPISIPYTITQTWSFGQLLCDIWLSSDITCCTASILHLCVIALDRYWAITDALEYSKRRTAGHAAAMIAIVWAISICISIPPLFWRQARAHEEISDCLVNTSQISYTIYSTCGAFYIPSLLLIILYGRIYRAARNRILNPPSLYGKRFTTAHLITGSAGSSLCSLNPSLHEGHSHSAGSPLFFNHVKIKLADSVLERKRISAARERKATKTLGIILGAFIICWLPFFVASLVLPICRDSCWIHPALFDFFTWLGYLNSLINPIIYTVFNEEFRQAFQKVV
For experiment [8], the target named is T1, Serotonin 3 (5-HT3) receptor (Rattus norvegicus). As to the kind of experiment: Agonistic activity of compound towards 5-hydroxytryptamine 3 receptor in Von Bezold-Jarisch Reflex in rats at 60 (ug/kg), evaluated as change in heart rate. Type of experiment: functional.
Experiment [9] deals with 5-hydroxytryptamine receptor 1B (Rattus norvegicus, UniProt P28564). Description: Binding affinity for 5-hydroxytryptamine 1B receptor.
Sequence of 5-hydroxytryptamine receptor 1B (P28564 whole entry): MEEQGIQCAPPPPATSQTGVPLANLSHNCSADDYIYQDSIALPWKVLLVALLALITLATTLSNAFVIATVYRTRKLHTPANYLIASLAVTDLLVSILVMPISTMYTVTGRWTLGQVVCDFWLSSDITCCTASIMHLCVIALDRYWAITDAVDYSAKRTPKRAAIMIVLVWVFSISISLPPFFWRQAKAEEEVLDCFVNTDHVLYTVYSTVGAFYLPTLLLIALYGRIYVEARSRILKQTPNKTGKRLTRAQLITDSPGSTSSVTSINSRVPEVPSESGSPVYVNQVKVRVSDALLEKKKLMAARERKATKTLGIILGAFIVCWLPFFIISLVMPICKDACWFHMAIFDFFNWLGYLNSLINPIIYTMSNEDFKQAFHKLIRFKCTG
Experiment [10] has as its target 5-hydroxytryptamine receptor 2A (Bos taurus, UniProt Q75Z89). Description: Binding affinity towards 5-hydroxytryptamine 2A receptor.

Sequence of 5-hydroxytryptamine receptor 2A (Q75Z89 whole entry): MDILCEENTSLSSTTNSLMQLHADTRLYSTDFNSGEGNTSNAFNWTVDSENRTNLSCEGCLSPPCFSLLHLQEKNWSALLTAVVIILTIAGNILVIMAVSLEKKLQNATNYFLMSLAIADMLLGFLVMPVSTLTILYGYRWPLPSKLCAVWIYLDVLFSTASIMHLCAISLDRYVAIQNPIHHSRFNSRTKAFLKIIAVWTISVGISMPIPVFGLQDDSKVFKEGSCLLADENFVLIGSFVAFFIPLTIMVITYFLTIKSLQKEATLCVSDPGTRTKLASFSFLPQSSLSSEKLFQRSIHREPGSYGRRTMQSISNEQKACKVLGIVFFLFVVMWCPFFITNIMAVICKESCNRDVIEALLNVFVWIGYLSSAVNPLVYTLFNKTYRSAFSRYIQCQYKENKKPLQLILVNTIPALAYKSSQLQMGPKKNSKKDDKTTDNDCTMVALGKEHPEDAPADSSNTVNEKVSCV

By pIC50 is commonly meant the IC50 on a negative log10 scale, so that one unit is a factor of ten. `C=CCN1CCN(c2nc3sccc3n3cccc23)CC1`: the results for the Change in experiment [1], in experiment [3] and in experiment [8] were 67%, 72% and 30%, respectively. Besides, the pEC50 in [2] is 8.40. In addition, the pIC50 in experiment [4] is 6.12; in experiment [5], 9.04; in experiment [6], 7.17; in [7], 6.33; in experiment [9] it was 6.38; in [10], 5.63.
